# Results taken from the supplement of paper PMC10307832.
# Assays:
# Assay in all cases: relative viability (nuclei count vs DMSO), 5 days (fraction); higher = more cells survive
# COR-L23 = tested on: COR-L23
# How it was run: (§1)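 Each reported value is a median over duplicate plates. It expresses relative viability: treated-well nuclei count divided by vehicle-well nuclei count. Lung cancer cell lines in 1536-well plates were dosed by pin tool a day after seeding, alone with one drug or with a fixed anchor-drug dose plus five library-drug doses (not always all listed) in √10 steps, and nuclei were counted after 5 days.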
# SK-MES-1 = tested on: SK-MES-1
# How it was run: as §1
# NCI-H1651 = tested on: NCI-H1651
# How it was run: as §1
# NCI-H1623 = tested on: NCI-H1623
# How it was run: as §1
# ABC-1 = tested on: ABC-1
# How it was run: as §1
# ChaGo-K-1 = tested on: ChaGo-K-1
# How it was run: as §1
# NCI-H1437 = tested on: NCI-H1437
# How it was run: as §1
# SW 1573 = tested on: SW 1573
# How it was run: as §1
compound,measurement,setting,value
CC(=O)O[C@@]12CO[C@@H]1C[C@H](O)[C@@]1(C)C(=O)[C@H](O)C3=C(C)[C@@H](OC(=O)[C@H](O)[C@@H](NC(=O)OC(C)(C)C)c4ccccc4)C[C@@](O)([C@@H](OC(=O)c4ccccc4)[C@H]21)C3(C)C [Docetaxel] + CCNC(=O)c1noc(-c2cc(C(C)C)c(O)cc2O)c1-c1ccc(CN2CCOCC2)cc1 [Luminespib] (partner 0.01 µM),relative viability,COR-L23; first compound 0.0002 µM,0.632
same,relative viability,COR-L23; first compound 0.000632 µM,0.622
same,relative viability,COR-L23; first compound 0.002 µM,0.131
same,relative viability,COR-L23; first compound 0.006325 µM,0.128
same,relative viability,COR-L23; first compound 0.02 µM,0.101
same,relative viability,SK-MES-1; first compound 0.0002 µM,0.695
same,relative viability,SK-MES-1; first compound 0.000632 µM,0.618
same,relative viability,SK-MES-1; first compound 0.002 µM,0.267
same,relative viability,SK-MES-1; first compound 0.02 µM,0.163
same,relative viability,NCI-H1651; first compound 0.0002 µM,0.821
same,relative viability,NCI-H1651; first compound 0.000632 µM,0.842
same,relative viability,NCI-H1651; first compound 0.002 µM,0.258
same,relative viability,NCI-H1651; first compound 0.006325 µM,0.27
same,relative viability,NCI-H1651; first compound 0.02 µM,0.12
same,relative viability,NCI-H1623; first compound 0.0002 µM,0.543
same,relative viability,NCI-H1623; first compound 0.000632 µM,0.405
same,relative viability,NCI-H1623; first compound 0.002 µM,0.455
same,relative viability,NCI-H1623; first compound 0.006325 µM,0.353
same,relative viability,NCI-H1623; first compound 0.02 µM,0.281
same,relative viability,ABC-1; first compound 0.0002 µM,0.619
same,relative viability,ABC-1; first compound 0.000632 µM,0.704
same,relative viability,ABC-1; first compound 0.002 µM,0.231
same,relative viability,ABC-1; first compound 0.006325 µM,0.352
same,relative viability,ABC-1; first compound 0.02 µM,0.338
same,relative viability,ChaGo-K-1; first compound 0.0002 µM,0.528
same,relative viability,ChaGo-K-1; first compound 0.000632 µM,0.468
same,relative viability,ChaGo-K-1; first compound 0.002 µM,0.251
same,relative viability,ChaGo-K-1; first compound 0.006325 µM,0.228
same,relative viability,NCI-H1437; first compound 0.0002 µM,1.07
same,relative viability,NCI-H1437; first compound 0.000632 µM,1.09
same,relative viability,NCI-H1437; first compound 0.002 µM,0.277
same,relative viability,NCI-H1437; first compound 0.006325 µM,0.234
same,relative viability,NCI-H1437; first compound 0.02 µM,0.167
same,relative viability,SW 1573; first compound 0.0002 µM,0.165
same,relative viability,SW 1573; first compound 0.000632 µM,0.211
same,relative viability,SW 1573; first compound 0.002 µM,0.0935
same,relative viability,SW 1573; first compound 0.006325 µM,0.137
same,relative viability,SW 1573; first compound 0.02 µM,0.0617
COc1cc2nccc(Oc3ccc(NC(=O)Nc4cc(C)on4)c(Cl)c3)c2cc1OC [Tivozanib] + Cc1nc(Nc2ncc(C(=O)Nc3c(C)cccc3Cl)s2)cc(N2CCN(CCO)CC2)n1 [Dasatinib] (partner 0.075 µM),relative viability,COR-L23; first compound 0.005 µM,0.484
same,relative viability,COR-L23; first compound 0.01581 µM,0.515
same,relative viability,COR-L23; first compound 0.05 µM,0.462
same,relative viability,COR-L23; first compound 0.1581 µM,0.485
same,relative viability,COR-L23; first compound 0.5 µM,0.452
same,relative viability,SK-MES-1; first compound 0.005 µM,0.288
same,relative viability,SK-MES-1; first compound 0.01581 µM,0.404
same,relative viability,SK-MES-1; first compound 0.05 µM,0.442
same,relative viability,SK-MES-1; first compound 0.1581 µM,0.332
same,relative viability,SK-MES-1; first compound 0.5 µM,0.416
same,relative viability,NCI-H1651; first compound 0.005 µM,0.291
same,relative viability,NCI-H1651; first compound 0.01581 µM,0.437
same,relative viability,NCI-H1651; first compound 0.05 µM,0.457
same,relative viability,NCI-H1651; first compound 0.1581 µM,0.36
same,relative viability,NCI-H1651; first compound 0.5 µM,0.377
same,relative viability,NCI-H1623; first compound 0.005 µM,0.509
same,relative viability,NCI-H1623; first compound 0.01581 µM,0.56
same,relative viability,NCI-H1623; first compound 0.05 µM,0.578
same,relative viability,NCI-H1623; first compound 0.5 µM,0.527
same,relative viability,ABC-1; first compound 0.005 µM,0.649
same,relative viability,ABC-1; first compound 0.01581 µM,0.583
same,relative viability,ABC-1; first compound 0.05 µM,0.729
same,relative viability,ABC-1; first compound 0.1581 µM,0.489
same,relative viability,ABC-1; first compound 0.5 µM,0.323
same,relative viability,ChaGo-K-1; first compound 0.005 µM,0.543
same,relative viability,ChaGo-K-1; first compound 0.01581 µM,0.61
same,relative viability,ChaGo-K-1; first compound 0.05 µM,0.626
same,relative viability,ChaGo-K-1; first compound 0.1581 µM,0.602
same,relative viability,ChaGo-K-1; first compound 0.5 µM,0.581
same,relative viability,NCI-H1437; first compound 0.005 µM,0.292
same,relative viability,NCI-H1437; first compound 0.01581 µM,0.449
same,relative viability,NCI-H1437; first compound 0.05 µM,0.38
same,relative viability,NCI-H1437; first compound 0.1581 µM,0.284
same,relative viability,NCI-H1437; first compound 0.5 µM,0.276
same,relative viability,SW 1573; first compound 0.005 µM,0.534
same,relative viability,SW 1573; first compound 0.01581 µM,0.566
same,relative viability,SW 1573; first compound 0.05 µM,0.46
same,relative viability,SW 1573; first compound 0.1581 µM,0.513
same,relative viability,SW 1573; first compound 0.5 µM,0.381
Nc1ccn([C@@H]2O[C@H](CO)[C@@H](O)[C@@H]2O)c(=O)n1 [Cytarabine] + Cc1nc(Nc2ncc(C(=O)Nc3c(C)cccc3Cl)s2)cc(N2CCN(CCO)CC2)n1 [Dasatinib] (partner 0.075 µM),relative viability,COR-L23; first compound 0.005 µM,0.405
same,relative viability,COR-L23; first compound 0.01581 µM,0.312
same,relative viability,COR-L23; first compound 0.05 µM,0.287
same,relative viability,COR-L23; first compound 0.1581 µM,0.17
same,relative viability,COR-L23; first compound 0.5 µM,0.14
same,relative viability,SK-MES-1; first compound 0.005 µM,0.213
same,relative viability,SK-MES-1; first compound 0.01581 µM,0.174
same,relative viability,SK-MES-1; first compound 0.05 µM,0.127
same,relative viability,SK-MES-1; first compound 0.1581 µM,0.117
same,relative viability,SK-MES-1; first compound 0.5 µM,0.113
same,relative viability,NCI-H1651; first compound 0.005 µM,0.406
same,relative viability,NCI-H1651; first compound 0.01581 µM,0.457
same,relative viability,NCI-H1651; first compound 0.05 µM,0.397
same,relative viability,NCI-H1651; first compound 0.1581 µM,0.179
same,relative viability,NCI-H1651; first compound 0.5 µM,0.205
same,relative viability,NCI-H1623; first compound 0.005 µM,0.479
same,relative viability,NCI-H1623; first compound 0.01581 µM,0.449
same,relative viability,NCI-H1623; first compound 0.05 µM,0.286
same,relative viability,NCI-H1623; first compound 0.1581 µM,0.471
same,relative viability,NCI-H1623; first compound 0.5 µM,0.291
same,relative viability,ABC-1; first compound 0.005 µM,0.501
same,relative viability,ABC-1; first compound 0.01581 µM,0.492
same,relative viability,ABC-1; first compound 0.05 µM,0.564
same,relative viability,ABC-1; first compound 0.1581 µM,0.473
same,relative viability,ABC-1; first compound 0.5 µM,0.332
same,relative viability,ChaGo-K-1; first compound 0.005 µM,0.518
same,relative viability,ChaGo-K-1; first compound 0.01581 µM,0.347
same,relative viability,ChaGo-K-1; first compound 0.05 µM,0.384
same,relative viability,ChaGo-K-1; first compound 0.1581 µM,0.182
same,relative viability,ChaGo-K-1; first compound 0.5 µM,0.184
same,relative viability,NCI-H1437; first compound 0.005 µM,0.395
same,relative viability,NCI-H1437; first compound 0.01581 µM,0.26
same,relative viability,NCI-H1437; first compound 0.05 µM,0.228
same,relative viability,NCI-H1437; first compound 0.1581 µM,0.142
same,relative viability,NCI-H1437; first compound 0.5 µM,0.165
same,relative viability,SW 1573; first compound 0.005 µM,0.34
same,relative viability,SW 1573; first compound 0.01581 µM,0.333
same,relative viability,SW 1573; first compound 0.05 µM,0.381
same,relative viability,SW 1573; first compound 0.1581 µM,0.122
same,relative viability,SW 1573; first compound 0.5 µM,0.089
